Key:
Format in all cases: cell-based
[1] = test system: Pseudomonas aeruginosa; test: Agar plate disc-diffusion, antibacterial activity (inhibition zone); conditions: nutrient agar, 37° C., 48 h, DMSO zone subtracted
Procedure: (§1) The agar plate disc-diffusion method was applied. Sterilized filter papers (6 mm in diameter) were wetted with 10 μL of a solution of 4-chloro-N′-(2-(5-(4-chlorophenyl)-1,3,4-oxadiazol-2-ylthio)acetoxy)benzimidamide (3) to be tested, containing 10 mg/mL in DMSO, and the discs were allowed to air dry. The discs were then placed onto the surface of agar plates (nutrient agar for bacteria and Sabouraud's dextrose agar for fungi) seeded with the test organism. Each plate contained 15 mL of the agar medium, previously seeded with 0.2 mL of the broth culture of each organism pregrown for 18 hours. The plates were incubated at 37° C. for 48 h, and 72 h for fungi. The inhibition zones were measured in mm. Discs impregnated with DMSO were used as a control, and its inhibition zone was subtracted from the tested compound actual inhibition zone.
(§2) The results of the antimicrobial testing can be observed in Tables 1 and 2, below, using ciprofloxacin as a reference.

[2] = test system: Staphylococcus aureus; test: as above; conditions: nutrient agar, 37° C., 48 h, DMSO zone subtracted
Procedure: as §1, §2

[3] = test system: Escherichia coli; test: as above; conditions: nutrient agar, 37° C., 48 h, DMSO zone subtracted
Procedure: as §1, §2

[4] = test system: Bacillus Cereus; test: as above; conditions: nutrient agar, 37° C., 48 h, DMSO zone subtracted
Procedure: as §1, §2

[5] = test system: Chrysosporium keratinophilum; test: Agar plate disc-diffusion, antifungal activity (inhibition zone); conditions: Sabouraud's dextrose agar, 37° C., 72 h, DMSO zone subtracted
Procedure: as §1, §2

[6] = test system: Aspergillus flavus; test: as above; conditions: Sabouraud's dextrose agar, 37° C., 72 h, DMSO zone subtracted
Procedure: as §1, §2

[7] = A = concentration of comp. = 10,000 μL
[8] = B = concentration of comp. = 30.000 μL
[9] = C = concentration of comp. = 50,000 μL

## N/C(=N\OC(=O)CSc1nnc(-c2ccc(Cl)cc2)o1)c1ccc(Cl)cc1 [Compound 3, 4-chloro-N′-(2-(5-(4-chlorophenyl)-1,3,4-oxadiazol-2-ylthio)acetoxy)benzimidamide]
[1]; [7]
  inhibition zone, Pseudomonas aeruginosa, A: 21 mm
[1]; [8]
  inhibition zone, Pseudomonas aeruginosa, B: 24 mm
[1]; [9]
  inhibition zone, Pseudomonas aeruginosa, C: 36 mm
[2]; [7]
  inhibition zone, Staphylococcus aureus, A: 19 mm
[2]; [8]
  inhibition zone, Staphylococcus aureus, B: 24 mm
[2]; [9]
  inhibition zone, Staphylococcus aureus, C: 37 mm
[3]; [7]
  inhibition zone, Escherichia coli, A: 27 mm
[3]; [8]
  inhibition zone, Escherichia coli, B: 34 mm
[3]; [9]
  inhibition zone, Escherichia coli, C: 41 mm
[4]; [7]
  inhibition zone, Bacillus Cereus, A: 20 mm
[4]; [8]
  inhibition zone, Bacillus Cereus, B: 26 mm
[4]; [9]
  inhibition zone, Bacillus Cereus, C: 39 mm
[5]; [7]
  inhibition zone, Chrysosporium keratinophilum, A: 25 mm
[5]; [8]
  inhibition zone, Chrysosporium keratinophilum, B: 27 mm
[5]; [9]
  inhibition zone, Chrysosporium keratinophilum, C: 40 mm
[6]; [7]
  inhibition zone, Aspergillus flavus, A: 24 mm
[6]; [8]
  inhibition zone, Aspergillus flavus, B: 26 mm
[6]; [9]
  inhibition zone, Aspergillus flavus, C: 35 mm
